Measurements published in patent US20110158909A1, “Cationic Contrast Agents and Methods of Use Thereof” (Trustees of Boston University, priority 2008, published 2011).
Where two headings read alike, the source gives them in different places.

How the values were obtained:
[1] = CT imaging of normal and trypsin degraded osteochondral plugs with anionic and cationic contrast agent; set-up: species or system bovine; settings: for x-ray attenuation coefficient, normal vs trypsin degraded osteochondral plugs: 16 mg/mL bound iodine, overnight at 4° C., p<0.05
Description: In one experiment, eight osteochondral plugs (7 mm diameter) were harvested immediately after slaughter from the patella-femoral joint of three mature cows using a water-cooled, cylindrical diamond tipped cutter (See FIG. 2a for an example picture of osteochondral plugs). The plugs were divided into a normal cartilage group (n=4) and a trypsin degraded cartilage group (n=4). The osteochondral plugs of the degraded cartilage group were immersed in trypsin (2 mg/mL in 50 mM Tris, 20 mM CaCl2, pH=7.8) and incubated for 2 hours at 37° C.
All the plugs were immersed overnight in Cysto Conray II, an anionic, triiodinated contrast agent, diluted in PBS to 16 mg/mL of bound iodine at 4° C. to allow sufficient time for the contrast agent to diffuse into the cartilage. Sequential, 100μ thick, transaxial pQCT images were obtained at 70μ in plane resolution and 300μ inter-slice distance (XCT Research SA+, Stratec) for all the osteochondral plugs. The CT data were imported into Analyze™ (BIR, Mayo Clinic) to create reconstructed 3D images of the osteochondral plugs (see FIG. 2b for a representative image representing one slice of the reconstructed 3D image). A user specified contour was employed to segment the cartilage from the bone. The mean x-ray attenuation coefficient for cartilage was obtained by averaging over all pixels contained in cartilage on the transaxial CT images. The osteochondral plugs were then washed in PBS to remove the anionic contrast agent. The plugs were then re-immersed in the cationic triiodinated contrast agent at the same dilution and conditions used for the anionic contrast agent and repeat CT imaging of the osteochondral plugs was performed.
The GAG content of the articular cartilage was measured using a dimethylmethylene blue (DMMB) assay. A razor blade was used to separate the articular cartilage from the subchondral bone and the cartilage was stored at −20° C. After weighing the hydrated cartilage, it was lyophilized and weighed dry. The cartilage was digested with papain at 65° C. for 24 hours and diluted 10 to 100 times for the assay. Accounting for the dilution, the total GAG weight per mg cartilage dry weight was calculated.
The GAG content measured directly; the x-ray attenuation measured by CT for the anionic and cationic contrast agents were compared for the normal and trypsin degraded articular cartilage plugs using 1-way.ANOVA. Further, the x-ray attenuation measured by CT for both the anionic and cationic contrast agents was expressed as a function of the measured GAG content. The slopes of these relationships were compared to assess the relative sensitivity of these contrast agents to measure differences in the GAG content of articular cartilage.

[2] = Cartilage degradation study (chondroitinase ABC): CT attenuation vs GAG content by DMMB assay; set-up: species or system bovine; settings: for slope of linear regression, average CT intensity vs GAG content: GAG content as 100×(mg of GAG)/(mg of hydrated cartilage)
Description: In order to evaluate the ability of the contrast agents to diagnose an OA state, the hyaline cartilage of the osteochondral plugs was enzymatically degraded to mimic the GAG depletion observed in early OA by exposing the hyaline cartilage to different concentrations of the polysaccharide-specific hydrolase, chondroitinase ABC. After degradation, the same set of osteochondral plugs was exposed to each contrast agent consecutively, enabling a direct comparison of the resulting data. The average CT attenuation for each group was plotted as a function of the GAG content obtained by the DMMB assay and subjected to linear regression analysis (FIG. 7A). […] The variation in CT attenuation effected by diffusion of cationic contrast agent 6, with four positive charges, into the hyaline cartilage accounted for 79% of the variation in cartilage GAG, whereas the variation in CT attenuation effected by diffusion of cationic contrast agent 4, with a single positive charge, accounted for 56% of the variation in cartilage GAG. In comparison, the diffusion of anionic contrast agent iothalamate with a single negative charge accounted for 52% of the variation in cartilage GAG. The slope of the regression line represents the sensitivity of contrast enhanced CT attenuation of cartilage to changes in the GAG content of the cartilage. The cationic contrast agents were more sensitive (4: 1.4× and 6: 5.3×) to changes in cartilage GAG content than the anionic contrast agent iothalamate.

[3] = Passive diffusion of contrast agents into and out of articular cartilage, quantitative CT; set-up: species or system bovine; settings: for average CT attenuation: time=5 h to time=24 h of immersion in contrast agent, 27 mg iodine/mL, pH 6.8, n=4
Description: The diffusion characteristics of the contrast agents were evaluated using bovine osteochondral plugs. Two cationic contrast agents, 4 and 6, were compared to a commercially-available singly-charged anionic contrast agent, iothalamate (Cysto Conray II®). Three groups of osteochondral plugs were prepared (n=4)—one for each contrast agent. The plugs were immersed in aqueous contrast agent solution (27 mg of organically-bound iodine/mL, pH 6.8) and removed at 1, 2, 4, 6, 18, and 24 h for imaging using quantitative CT (QCT). Following diffusion into the cartilage, the osteochondral plugs were immersed in saline solution and imaged at the same time points to monitor the diffusion of the contrast agent out of the cartilage. Articular cartilage has a natural anisotropic distribution of GAGs, with low GAG content in the superficial zone and higher GAG content in the middle and deep zones. This anisotropic distribution of GAG was reflected by the variation in x-ray attenuation in the CT images (FIG. 5B). […] In order to determine the initial rates of diffusion into the cartilage tissue, linear regression analyses were applied to the contrast-enhanced CT attenuation data for each osteochondral plug after immersion for 0, 1, and 2 h (Table 1). The slope represents the average rate of diffusion for each contrast agent. Cationic contrast agents 4 and 6 diffuse into cartilage 1.77 and 1.65 times faster, respectively, than the anionic agent iothalamate (FIG. 6).

[4] = microCT imaging of intact rabbit femur; settings: magnified view of cartilage surface, FIG. 8B
Description: Contrast agent 6 was chosen for use in a rabbit femur study to highlight the ability of the cationic contrast agent to portray the variation in cartilage GAG concentration and cartilage thickness in an intact rabbit femur. […] The contrast-enhanced CT image was able to define the anisotropic distribution of GAG through the depth of the articular cartilage. […] The contrast enhanced CT image of the femur can also be used to determine the variable thickness of the articular cartilage. […] Cartilage thickness is greater at the femoral groove than at the condyles.

[5] = 2 h immersion in contrast agent

| level of CT attenuation in CT images of degraded and undegraded plugs [2] | relation of CT attenuation to GAG content [2] | sensitivity to changes in cartilage GAG content relative to iothalamate (slope of regression line) [2] [×] | variation in cartilage GAG accounted for by variation in CT attenuation [2] [%] | slope of linear regression, average CT intensity vs GAG content [2] | level of CT attenuation in CT images of degraded and undegraded plugs ([2]; after equilibrium in contrast agent, FIG. 7B) | Structure (SMILES) | x-ray attenuation coefficient, normal vs trypsin degraded osteochondral plugs [1] | sensitivity of relative change in x-ray attenuation to change in GAG content, compared to anionic contrast agent ([1]; normal vs trypsin degraded plugs) [×] | enhancement of CT images of cartilage tissue ([1]; osteochondral plugs) | CT attenuation of cartilage in CT images [3, 5] | CT attenuation of cartilage in CT images ([3]; after 24 h in saline) | x-ray attenuation higher compared to iothalamate ([3]; after equilibration (24 h)) [%] | initial rate of diffusion into cartilage relative to iothalamate ([3]; linear regression of CT attenuation at 0, 1 and 2 h) [times faster] | average CT attenuation [3] | sensitivity to distribution of GAG in cartilage surface [4] | reflection of anisotropic GAG distribution (deep vs superficial zone) in CT images ([3]; FIG. 5B) | CT attenuation of cartilage in CT images ([3]; after 2 h of immersion in saline) | removal from cartilage on immersion in saline ([3]; after immersion in saline for 6 hours) |
| --- | --- | --- | --- | --- | --- | --- | --- | --- | --- | --- | --- | --- | --- | --- | --- | --- | --- | --- |
| – | – | – | – | – | – | NCCNC(=O)c1c(I)c(N)c(I)c(C(=O)NCCN)c1I [contrast agent 2] | greater than that for the trypsin degraded osteochondral plugs | 4.3 | capable of enhancing CT images of the cartilage tissue | – | – | – | – | – | – | – | – | – |
| high levels of CT attenuation | directly proportional | 5.3 | 79 | 13758 | – | NCCNC(=O)c1c(I)cc(I)c(N)c1I [contrast agent 6] | – | – | – | medium levels | still showed medium levels of CT attenuation | ~60 | 1.65 | 900-1100 | sensitive to the variable distribution of GAG throughout the cartilage surface | – | – | – |
| – | indirectly related | – | 52 | negative slope | low levels of CT attenuation | CNC(=O)c1c(I)c(NC(C)=O)c(I)c(C(=O)O)c1I [iothalamate, reference compound] | inverse relation | – | – | very little change | – | – | – | 500-600 | – | less sensitive to subtle changes in the GAG content | began to decline | almost completely removed |
